Test results reported in US9688699B2, “3-(pyrimidine-2-yl)imidazo[1,2-a]pyridines” (Bayer Pharma Aktiengesellschaft, priority 2014, dated 2017).
Counter-ions that a name gives are not always drawn.

Tests used:
[1] = target: T1, recombinant guanylate cyclase reporter cell line (Rattus norvegicus, UniProt P19686+P20595); assay: Effect on a recombinant guanylate cyclase reporter cell line (B-2); assay type: cell-based; conditions: MEC = minimum effective concentration, in some cases mean values for individual determinations
T1 construct: expressed in transfected cells
T1 sequence (P19686 1-690): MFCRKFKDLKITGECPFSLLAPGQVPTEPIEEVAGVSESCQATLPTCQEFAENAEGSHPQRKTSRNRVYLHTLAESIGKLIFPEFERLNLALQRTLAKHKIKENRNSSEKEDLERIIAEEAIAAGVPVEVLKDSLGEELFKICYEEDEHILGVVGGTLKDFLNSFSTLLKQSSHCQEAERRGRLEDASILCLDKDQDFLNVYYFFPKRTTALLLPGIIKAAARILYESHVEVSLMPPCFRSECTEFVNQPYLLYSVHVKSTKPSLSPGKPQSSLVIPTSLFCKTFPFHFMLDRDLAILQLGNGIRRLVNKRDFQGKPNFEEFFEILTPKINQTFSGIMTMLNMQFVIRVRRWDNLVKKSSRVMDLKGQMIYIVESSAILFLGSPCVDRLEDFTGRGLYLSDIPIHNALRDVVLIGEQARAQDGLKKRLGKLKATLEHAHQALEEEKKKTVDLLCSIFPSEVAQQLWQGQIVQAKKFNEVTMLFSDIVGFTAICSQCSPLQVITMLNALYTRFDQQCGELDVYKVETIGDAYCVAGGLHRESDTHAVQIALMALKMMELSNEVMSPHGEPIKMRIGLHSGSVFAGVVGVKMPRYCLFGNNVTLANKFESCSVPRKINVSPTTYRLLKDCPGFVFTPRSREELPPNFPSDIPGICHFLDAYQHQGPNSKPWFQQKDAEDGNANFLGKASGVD
T1 sequence (P20595 1-619): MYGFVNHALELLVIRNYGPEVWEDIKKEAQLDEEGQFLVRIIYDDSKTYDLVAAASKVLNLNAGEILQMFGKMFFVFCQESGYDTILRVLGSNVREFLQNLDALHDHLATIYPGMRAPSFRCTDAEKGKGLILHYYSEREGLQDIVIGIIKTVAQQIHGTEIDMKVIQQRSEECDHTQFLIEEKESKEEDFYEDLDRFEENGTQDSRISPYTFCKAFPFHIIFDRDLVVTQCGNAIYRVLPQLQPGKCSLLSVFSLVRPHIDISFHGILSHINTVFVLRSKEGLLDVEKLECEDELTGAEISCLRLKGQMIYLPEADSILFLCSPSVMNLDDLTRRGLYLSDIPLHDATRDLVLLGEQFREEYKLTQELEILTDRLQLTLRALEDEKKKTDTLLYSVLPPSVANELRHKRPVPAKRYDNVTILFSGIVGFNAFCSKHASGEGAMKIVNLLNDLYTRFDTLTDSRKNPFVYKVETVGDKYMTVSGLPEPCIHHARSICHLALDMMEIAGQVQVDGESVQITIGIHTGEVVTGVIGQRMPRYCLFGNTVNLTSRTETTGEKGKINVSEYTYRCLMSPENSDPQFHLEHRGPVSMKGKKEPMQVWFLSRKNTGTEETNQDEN
Experimental: B-2. Effect on a Recombinant Guanylate Cyclase Reporter Cell Line
The cellular activity of the compounds according to the invention is determined using a recombinant guanylate cyclase reporter cell line, as described in F. Wunder et al., Anal. Biochem. 339, 104-112 (2005).
Representative MEC values (MEC=minimum effective concentration) for the compounds of the invention are shown in Table 1 below (in some cases as mean values for individual determinations): […]

[2] = target: T2, human phosphodiesterase 5 (PDE 5) (Homo sapiens, UniProt O76074); assay: Inhibition of human phosphodiesterase 5 (PDE 5) (B-3); assay type: biochemical; conditions: PDE 5 preparation from human platelets; [8-3H] cGMP substrate, SPA; in some cases means of individual determinations
T2 construct: PDE 5 preparations are obtained from human platelets by disruption; from tissue; host or cells: human platelets (Mono Q ion exchange fractions with PDE 5 activity)
Experimental: B-3. Inhibition of Human Phosphodiesterase 5 (PDE 5)
PDE 5 preparations are obtained from human platelets by disruption (Microfluidizer®, 800 bar, 3 passes), followed by centrifugation (75 000 g, 60 min, 4° C.) and ion exchange chromatography of the supernatant on a Mono Q 10/10 column (linear sodium chloride gradient, elution with a 0.2-0.3M solution of sodium chloride in buffer (20 mM Hepes pH 7.2, 2 mM magnesium chloride). Fractions having PDE 5 activity are combined (PDE 5 preparation) and stored at −80° C.
To determine their in vitro action on human PDE 5, the test substances are dissolved in 100% DMSO and serially diluted. Typically, dilution series (1:3) from 200 μM to 0.091 μM are prepared (resulting final concentrations in the test: 4 μM to 0.0018 μM). In each case 2 μl of the diluted substance solutions are placed into the wells of microtitre plates (Isoplate-96/200 W; Perkin Elmer). Subsequently, 50 μl of a dilution of the above-described PDE 5 preparation are added. The dilution of the PDE 5 preparation is chosen such that during the later incubation less than 70% of the substrate are converted (typical dilution: 1:100; dilution buffer: 50 mM tris/hydrochloric acid pH 7.5, 8.3 mM magnesium chloride, 1.7 mM EDTA, 0.2% BSA). The substrate, [8-^3H] cyclic guanosine-3′,5′-monophosphate (1 μCi/μl; Perkin Elmer), is diluted 1:2000 with assay buffer (50 mM tris/hydrochloric acid pH 7.5, 8.3 mM magnesium chloride, 1.7 mM EDTA) to a concentration of 0.0005 μCi/μl. By addition of 50 μl (0.025 μCi) of the diluted substrate, the enzyme reaction is finally started. The test mixtures are incubated at room temperature for 60 min and the reaction is stopped by adding 25 μl of a suspension of 18 mg/ml yttrium scintillation proximity beads in water (phosphodiesterase beads for SPA assays, RPNQ 0150, Perkin Elmer). The microtitre plates are sealed with a film and left to stand at room temperature for 60 min. Subsequently, the plates are analysed for 30 s per well in a Microbeta scintillation counter (Perkin Elmer). IC50 values are determined using the graphic plot of the substance concentration against percentage PDE 5 inhibition.

MEC [1] | IC50 [2] | Structure (SMILES)
1 µM | 3.6 nM | Cc1nc2c(OCc3c(F)cccc3F)cccn2c1-c1nc2c(c(NC3CC(O)C3)n1)C(C)(C)C(=O)N2 (mixture of isomers) [Example 30, 2-{8-[(2,6-difluorobenzyl)oxy]-2-methylimidazo[1,2-a]pyridin-3-yl}-4-[(3-hydroxycyclobutyl)amino]-5,5-dimethyl-5,7-dihydro-6H-pyrrolo[2,3-d]pyrimidin-6-one [cis/trans mixture]]
2 µM | 590 nM | Cc1nc2c(OCc3c(F)cccc3F)cccn2c1-c1nc(I)c2c(n1)NC(=O)C2(C)C(F)(F)F (racemic) [Example 7, rac-2-{8-[(2,6-Difluorobenzyl)oxy]-2-methylimidazo[1,2-a]pyridin-3-yl}-4-iodo-5-methyl-5-(trifluoromethyl)-5,7-dihydro-6H-pyrrolo[2,3-d]pyrimidin-6-one trifluoroacetate (racemate)]
1 µM | 120 nM | Cc1nc2c(OCc3c(F)cccc3F)cccn2c1-c1nc(O)c2c(n1)NC(=O)C2(C)C(F)(F)F (racemic) [Example 8, rac-2-{8-[(2,6-Difluorobenzyl)oxy]-2-methylimidazo[1,2-a]pyridin-3-yl}-4-hydroxy-5-methyl-5-(trifluoromethyl)-5,7-dihydro-6H-pyrrolo[2,3-d]pyrimidin-6-one trifluoroacetate]
1 µM | 12 nM | CCCC(C)(N)CNc1nc(-c2c(C)nc3c(OCc4c(F)cccc4F)cccn23)nc2c1C(C)(C)C(=O)N2 (racemic) [Example 13, rac-4-[(2-Amino-2-methylpentyl)amino]-2-{8-[(2,6-difluorobenzyl)oxy]-2-methylimidazo[1,2-a]pyridin-3-yl}-5,5-dimethyl-5,7-dihydro-6H-pyrrolo[2,3-d]pyrimidin-6-one (racemate)]
1 µM | 19 nM | Cc1nc2c(OCc3c(F)cccc3F)cccn2c1-c1nc(NCC(O)C(F)(F)F)c2c(n1)NC(=O)C2(C)C (racemic) [Example 18, rac-2-{8-[(2,6-difluorobenzyl)oxy]-2-methylimidazo[1,2-a]pyridin-3-yl}-5,5-dimethyl-4-[(3,3,3-trifluoro-2-hydroxypropyl)amino]-5,7-dihydro-6H-pyrrolo[2,3-d]pyrimidin-6-one]
 | 3 nM | Cc1nc2c(OCc3c(F)ccc(F)c3F)cccn2c1-c1nc2c(c(C(=O)NCC(C)(N)C(F)(F)F)n1)C(C)(C)C(=O)N2 (racemic) [Example 57, rac-N-(2-amino-3,3,3-trifluoro-2-methylpropyl)-5,5-dimethyl-2-{2-methyl-8-[(2,3,6-trifluorobenzyl)oxy]imidazo[1,2-a]pyridin-3-yl}-6-oxo-6,7-dihydro-5H-pyrro1o[2,3-d]pyrimidine-4-carboxamide]
 | 1.2 nM | Cc1nc2c(OCc3c(F)ccc(F)c3F)cccn2c1-c1nc(NCC(C)(C)N)c2c(n1)NC(=O)C2(C)C [Example 31, 4-[(2-Amino-2-methylpropyl)amino]-5,5-dimethyl-2-{2-methyl-8-[(2,3,6-trifluorobenzyl)oxy]imidazo[1,2-a]pyridin-3-yl}-5,7-dihydro-6H-pyrrolo[2,3-d]pyrimidin-6-one formate]
0.3 µM |  | Cc1nc2c(OCc3c(F)cccc3F)cccn2c1-c1nc2c(c(OCCO)n1)C(C)(C)C(=O)N2 [Example 47, 2-{8-[(2,6-Difluorobenzyl)oxy]-2-methylimidazo[1,2-a]pyridin-3-yl}-4-(2-hydroxyethoxy)-5,5-dimethyl-5,7-dihydro-6H-pyrrolo[2,3-d]pyrimidin-6-one]
 | 430 nM | Cc1nc2c(OCc3c(F)ccc(F)c3F)cccn2c1-c1nc(C#CC2CC2)c2c(n1)NC(=O)C2(C)C [Example 70, 4-(Cyclopropylethynyl)-5,5-dimethyl-2-{2-methyl-8-[(2,3,6-trifluorobenzyl)oxy]imidazo[1,2-a]pyridin-3-yl}-5,7-dihydro-6H-pyrrolo[2,3-d]pyrimidin-6-one]
 | 200 nM | Cc1nc2c(OCc3c(F)ccc(F)c3F)cccn2c1-c1nc(CCC2CC2)c2c(n1)NC(=O)C2(C)C [Example 71, 4-(2-Cyclopropylethyl)-5,5-dimethyl-2-{2-methyl-8-[(2,3,6-trifluorobenzyl)oxy]imidazo[1,2-a]pyridin-3-yl}-5,7-dihydro-6H-pyrrolo[2,3-d]pyrimidin-6-one]
3 µM |  | CCCc1nc(-c2c(C)nc3c(OCc4c(F)ccc(F)c4F)cccn23)nc2c1C(C)(C)C(=O)N2 [Example 72, 5,5-Dimethyl-2-{2-methyl-8-[(2,3,6-trifluorobenzyl)oxy]imidazo[1,2-a]pyridin-3-yl}-4-propyl-5,7-dihydro-6H-pyrrolo[2,3-d]pyrimidin-6-one]
 | 22 nM | Cc1ncc(-c2nc(-c3c(C)nc4c(OCc5c(F)ccc(F)c5F)cccn34)nc3c2C(C)(C)C(=O)N3)s1 [Example 73, 5,5-Dimethyl-4-(2-methyl-1,3-thiazol-5-yl)-2-{2-methyl-8-[(2,3,6-trifluorobenzyl)oxy]imidazo[1,2-a]pyridin-3-yl}-5,7-dihydro-6H-pyrrolo[2,3-d]pyrimidin-6-one]
 | 46 nM | Cc1nc2c(OCc3c(F)ccc(F)c3F)cccn2c1-c1nc2c(c(OCC3CC3)n1)C(C)(C)C(=O)N2 [Example 76, 4-(Cyclopropylmethoxy)-5,5-dimethyl-2-{2-methyl-8-[(2,3,6-trifluorobenzyl)oxy]imidazo[1,2-a]pyridin-3-yl}-5,7-dihydro-6H-pyrrolo[2,3-d]pyrimidin-6-one]
 | 140 nM | Cc1nc2c(OCc3c(F)ccc(F)c3F)cccn2c1-c1nc2c(c(OCCC(F)(F)F)n1)C(C)(C)C(=O)N2 [Example 77, 5,5-Dimethyl-2-{2-methyl-8-[(2,3,6-trifluorobenzyl)oxy]imidazo[1,2-a]pyridin-3-yl}-4-(3,3,3-trifluoropropoxy)-5,7-dihydro-6H-pyrrolo[2,3-d]pyrimidin-6-one]
